Laboratory results published in patent publication US10221173B2, “Chemical compounds” (AstraZeneca AB, priority 2017, dated 2019).
Converted amounts (≈) assume the structure as drawn.

Key:
[1] = molecular target: recombinant human Estrogen Receptor alpha ligand binding domain (ER alpha-LBD (GST)) (Homo sapiens (Human), UniProt P03372); test: ERα binding assay (LanthaScreen TR-FRET competition)
Description: The ability of compounds to bind to isolated Estrogen Receptor Alpha Ligand binding domain (ER alpha—LBD (GST)) was assessed in competition assays using a LanthaScreen Time-Resolved Fluorescence Resonance Energy Transfer (TR-FRET) detection end-point. For the LanthaScreen TR-FRET endpoint, a suitable fluorophore (Fluormone ES2, ThermoFisher, Product code P2645) and recombinant human Estrogen Receptor alpha ligand binding domain, residues 307-554 (expressed and purified in-house) were used to measure compound binding. The assay principle is that ER alpha-LBD (GST) is added to a fluorescent ligand to form a receptor/fluorophore complex. A terbium-labelled anti-GST antibody (Product code PV3551) is used to indirectly label the receptor by binding to its GST tag, and competitive binding is detected by a test compound's ability to displace the fluorescent ligand, resulting in a loss of TR-FRET signal between the Tb-anti-GST antibody and the tracer. The assay was performed as follows with all reagent additions carried out using the Beckman Coulter BioRAPTR FRD microfluidic workstation: • 1. Acoustic dispense 120 nL of the test compound into a black low volume 384 well assay plates. • 2. Prepare 1× ER alpha-LBD/Tb-antiGST Ab in ES2 screening buffer and incubate for 15 minutes. • 3. […] Cover the assay plate to protect the reagents from light and evaporation, and incubate at room temperature for 4 hours. • 5. Excite at 337 nm and measure the fluorescent emission signal of each well at 490 nm and 520 nm using the BMG PheraSTAR.
TR-FRET dose response data obtained with each compound was exported into a suitable software package (such as Origin or Genedata) to perform curve fitting analysis. Competitive ER alpha binding was expressed as an IC50 value.

[2] = Thermodynamic solubility (shake-flask); format: physicochemical; settings: phosphate buffer pH 7.4, 24 hours
Description: The thermodynamic solubility of a research compound is measured under standard conditions. It is a shake-flask approach that uses 10 mM DMSO solutions which are supplied from the Compound Managements liquid store and is a high throughput method. The dried compounds are equilibrated in an aqueous phosphate buffer (pH 7.4) for 24 hours at 25° C., the portion with the dissolved compound is then separated from the remains. The solutions are analyzed and quantified using UPLC/MS/MS, QC-samples are incorporated in each assay-run to ensure the quality of the assay.

[3] = Log D (shake flask, 1-octanol/aqueous buffer); format: physicochemical; settings: for logD: 1-octanol/aqueous buffer, pH 7.4, pH 7.4
[4] = molecular target: Estrogen Receptor (ERα) in MCF-7 cells (Homo sapiens (Human), UniProt P03372); test: MCF-7 ER down-regulation assay (immuno-fluorescence); format: cell-based; settings: for % downregulation (in brackets): maximum downregulation
Description: The ability of compounds to down-regulate Estrogen Receptor (ER) numbers was assessed in a cell based immuno-fluorescence assay using the MCF-7 human ductal carcinoma breast cell line. MCF-7 cells were revived directly from a cryovial (approx 5×10^6 cells) in Assay Medium (phenol red free Dulbecco's Modified Eagle's medium (DMEM); Sigma D5921) containing 2 mM L-Glutamine and 5% (v/v) Charcoal/Dextran treated foetal calf serum. Cells were syringed once using a sterile 18G×1.5 inch (1.2×40 mm) broad gauge needle and cell density was measured using a Coulter Counter (Beckman). […] Following cell seeding, plates were incubated overnight at 37° C., 5% CO2 (Liconic carousel incubator). Test data was generated using the LabCyte Echomodel 555 compound reformatter which is part of an automated workcell (Integrated Echo 2 workcell). Compound stock solutions (10 mM) of the test compounds were used to generate a 384 well compound dosing plate (Labcyte P-05525-CV1). […] 40 μL of DMSO added to wells in row P on the source plate allowed for DMSO normalisation across the dose range. To dose the control wells 40 μL of DMSO was added to row O1 and 40 μL of 100 μM fulvestrant in DMSO was added to row O3 on the compound source plate.
The Echo uses acoustic technology to perform direct microplate-to-microplate transfers of DMSO compound solutions to assay plates. The system can be programmed to transfer volumes as low as 2.5 nL in multiple increments between microplates and in so doing generates a serial dilution of compound in the assay plate which is then back-filled to normalise the DMSO concentration across the dilution range. […] The fixing method described above was carried out on the Integrated Echo 2 workcell. Immunostaining was performed using an automated AutoElisa workcell. The PBS/Proclin was aspirated from all wells and the cells permeabilised with 40 μL PBS containing 0.5% Tween™ 20 (v/v) for 1 hour at room temperature. The plates were washed three times in 250 μL of PBS/0.05% (v/v) Tween 20 with Proclin (PBST with a Biocide preservative) and then 20 μL of ERα (SP1) Rabbit monoclonal antibody (Thermofisher) 1:1000 in PBS/Tween™/3% (w/v) Bovine Serum Albumin was added. The plates were incubated overnight at 4° C. (Liconic carousel incubator) and then washed three times in 250 μL of PBS/0.05% (v/v) Tween™ 20 with Proclin (PBST). The plates were then incubated with 20 μL/well of a goat anti-rabbit IgG AlexaFluor 594 or goat anti-rabbit AlexaFluor 488 antibody (Molecular Probes) with Hoechst at 1:5000 in PBS/Tween™/3% (w/v) Bovine Serum Albumin for 1 hour at room temperature. The plates were then washed three times in 250 μL of PBS/0.05% (v/v) Tween™ 20 with Proclin (PBST with a Biocide preservative). 20 μL of PBS was added to each well and the plates covered with a black plate seal and stored at 4° C. before being read. […] The mean total intensity was normalized for cell number giving the total intensity per cell. The data was exported into a suitable software package (such as Origin) to perform curve fitting analysis.

hERG potassium channel = hERG potassium channel (Homo sapiens (Human), UniProt Q12809)
[5] = Human plasma protein binding (equilibrium dialysis); format: in vitro ADME
Description: The automated equilibrium dialysis assay in human plasma uses the RED (Rapid Equilibrium Dialysis) Device and sample handling. The assay generally runs over two to three days including delivery of results. After dialysis for 18 hours, plasma and buffer samples are prepared for analysis by liquid chromatography and mass spectrometry. Samples are generally tested in singlicates and quantified by LC/MSMS by using a 7-point calibration curve in plasma. The compounds are pooled together in plasma pools up to 10 compounds. Three reference compounds are used in each run, Propranolol, Metoprolol and Warfarin. Warfarin is used as a control in each pool and Propranolol and Metoprolol are placed randomly in each run. An in-house Excel macro is used for preparation of files for the robot and the mass spectrometer and is also used for the calculations of fraction unbound (fu %) in plasma.

[6] = aqueous phosphate buffer, 25 °C, pH 7.4, aqueous buffer, thermodynamic from solid

hERG potassium channel, sequence (Q12809 whole entry): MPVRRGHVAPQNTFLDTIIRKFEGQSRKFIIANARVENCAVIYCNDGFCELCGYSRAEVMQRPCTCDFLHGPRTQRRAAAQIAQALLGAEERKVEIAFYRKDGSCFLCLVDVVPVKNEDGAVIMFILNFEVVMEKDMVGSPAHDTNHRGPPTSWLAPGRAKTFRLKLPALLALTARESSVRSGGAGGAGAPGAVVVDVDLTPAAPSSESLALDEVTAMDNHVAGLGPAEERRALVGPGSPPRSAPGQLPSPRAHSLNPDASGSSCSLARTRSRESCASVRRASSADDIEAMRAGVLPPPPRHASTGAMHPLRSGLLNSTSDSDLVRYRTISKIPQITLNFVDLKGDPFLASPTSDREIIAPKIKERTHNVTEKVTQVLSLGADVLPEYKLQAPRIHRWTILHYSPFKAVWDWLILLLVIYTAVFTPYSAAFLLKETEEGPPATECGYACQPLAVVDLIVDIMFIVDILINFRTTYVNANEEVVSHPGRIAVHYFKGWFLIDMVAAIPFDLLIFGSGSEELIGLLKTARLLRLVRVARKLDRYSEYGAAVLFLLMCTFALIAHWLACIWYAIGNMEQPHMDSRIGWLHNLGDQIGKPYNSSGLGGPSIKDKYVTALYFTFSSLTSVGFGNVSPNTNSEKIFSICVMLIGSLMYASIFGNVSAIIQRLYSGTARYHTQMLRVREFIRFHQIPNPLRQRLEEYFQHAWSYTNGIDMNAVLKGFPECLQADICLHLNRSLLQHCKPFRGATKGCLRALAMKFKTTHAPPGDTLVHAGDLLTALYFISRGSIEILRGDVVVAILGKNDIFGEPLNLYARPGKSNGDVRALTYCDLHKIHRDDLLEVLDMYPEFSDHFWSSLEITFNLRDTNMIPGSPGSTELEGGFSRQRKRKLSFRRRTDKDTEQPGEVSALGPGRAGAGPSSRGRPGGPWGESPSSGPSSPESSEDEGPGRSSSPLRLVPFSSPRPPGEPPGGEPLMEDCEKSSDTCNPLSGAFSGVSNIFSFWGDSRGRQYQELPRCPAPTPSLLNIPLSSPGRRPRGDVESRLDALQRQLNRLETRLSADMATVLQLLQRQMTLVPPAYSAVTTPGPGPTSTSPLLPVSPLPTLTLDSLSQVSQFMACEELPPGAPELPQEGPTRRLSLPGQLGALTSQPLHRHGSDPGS
Estrogen Receptor (ERα) in MCF-7 cells, sequence (P03372 whole entry): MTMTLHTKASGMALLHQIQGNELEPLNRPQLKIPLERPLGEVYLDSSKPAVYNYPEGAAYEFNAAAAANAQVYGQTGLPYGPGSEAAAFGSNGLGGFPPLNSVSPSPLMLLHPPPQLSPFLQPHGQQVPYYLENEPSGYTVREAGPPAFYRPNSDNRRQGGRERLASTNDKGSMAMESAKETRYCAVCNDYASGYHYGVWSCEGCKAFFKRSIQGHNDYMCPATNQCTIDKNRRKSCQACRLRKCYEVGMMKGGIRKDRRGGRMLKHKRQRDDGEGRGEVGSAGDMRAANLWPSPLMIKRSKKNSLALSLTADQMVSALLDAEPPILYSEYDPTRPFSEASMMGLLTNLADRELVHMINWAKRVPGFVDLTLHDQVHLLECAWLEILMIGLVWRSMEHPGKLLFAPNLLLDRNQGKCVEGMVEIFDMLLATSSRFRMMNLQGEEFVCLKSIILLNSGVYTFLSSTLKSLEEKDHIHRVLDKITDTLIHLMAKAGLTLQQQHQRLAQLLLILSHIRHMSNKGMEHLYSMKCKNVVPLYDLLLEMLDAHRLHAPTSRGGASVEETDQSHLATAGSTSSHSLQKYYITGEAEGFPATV
recombinant human Estrogen Receptor alpha ligand binding domain (ER alpha-LBD (GST)), sequence (P03372 307-554): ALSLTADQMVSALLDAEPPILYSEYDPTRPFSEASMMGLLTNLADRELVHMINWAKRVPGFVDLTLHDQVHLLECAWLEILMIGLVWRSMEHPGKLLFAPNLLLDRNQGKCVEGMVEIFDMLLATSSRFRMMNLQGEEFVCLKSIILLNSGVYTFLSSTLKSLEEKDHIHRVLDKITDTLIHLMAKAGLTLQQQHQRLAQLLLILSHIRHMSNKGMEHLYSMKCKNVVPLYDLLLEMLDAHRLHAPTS

| Compound | IC50 [1] [nM] | solubility at 24 h [2, 6] [µM] | logD [3] | IC50 [4] [nM] | IC50 (hERG potassium channel) [nM] | Human plasma protein binding (% free) [5] [% free] | % downregulation (in brackets) [4] [%] | solubility at 24 h ([2]; 25° C.) [µM] | LogD pH 7.4 ([3]; pH 7.4) |
| --- | --- | --- | --- | --- | --- | --- | --- | --- | --- |
| COc1ncc(OCCNCCCF)cc1[C@@H]1c2[nH]c3ccccc3c2C[C@@H](C)N1CC(F)(F)F [Example 36, 3-fluoro-N-(2-((6-methoxy-5-((1R,3R)-3-methyl-2-(2,2,2-trifluoroethyl)-2,3,4,9-tetrahydro-1H-pyrido[3,4-b]indol-1-yl)pyridin-3-yl)oxy)ethyl)propan-1-amine] | 2.6 | 183 (≈ 90.5 µg/mL) | 3.5 | 0.35 | 8700 | 2 | – | – | – |
| COc1ccc(OCCNCCCF)c(F)c1[C@@H]1c2[nH]c3ccccc3c2C[C@@H](C)N1CC(F)(F)CO [Example 81, 2,2-difluoro-3-((1R,3R)-1-(2-fluoro-3-(2-((3-fluoropropyl)amino)ethoxy)-6-methoxyphenyl)-3-methyl-1,3,4,9-tetrahydro-2H-pyrido[3,4-b]indol-2-yl)propan-1-ol] | > 110 | 736 (≈ 385 µg/mL) | 2.6 | 0.17 | 3900 | 2.9 | – | – | – |
| C[C@@H]1Cc2c([nH]c3ccccc23)[C@@H](c2cccc(OCCNCCCF)c2Cl)N1CC(F)(F)F [Example 25, N-(2-(2-chloro-3-((1R,3R)-3-methyl-2-(2,2,2-trifluoroethyl)-2,3,4,9-tetrahydro-1H-pyrido[3,4-b]indol-1-yl)phenoxy)ethyl)-3-fluoropropan-1-amine] | 0.88 | 19 (≈ 9.46 µg/mL) | 4.3 | 0.25 | 5200 | 0.080 | – | – | – |
| COc1ccc(OCCNCCCF)c(F)c1[C@@H]1c2[nH]c3ccccc3c2C[C@@H](C)N1CC1(F)CC1 [Example 83, 3-fluoro-N-(2-(2-fluoro-3-((1R,3R)-2-((1-fluorocyclopropyl)methyl)-3-methyl-2,3,4,9-tetrahydro-1H-pyrido[3,4-b]indol-1-yl)-4-methoxyphenoxy)ethyl)propan-1-amine] | 1.7 | 595 (≈ 298 µg/mL) | 2.9 | 0.28 | 4000 | 2.5 | 90 | – | – |
| C[C@@H]1Cc2c([nH]c3ccccc23)[C@@H](c2ccnc(OCCNCCCF)c2)N1CC(F)(F)F [Example 102, 3-fluoro-N-(2-((4-((1R,3R)-3-methyl-2-(2,2,2-trifluoroethyl)-2,3,4,9-tetrahydro-1H-pyrido[3,4-b]indol-1-yl)pyridin-2-yl)oxy)ethyl)propan-1-amine] | 2 | 251 (≈ 117 µg/mL) | 3.8 | 2.9 | 7200 | 1.4 | – | – | – |
| C[C@@H]1Cc2c([nH]c3ccccc23)[C@@H](c2c(F)ccc(OCCNCCCF)c2Cl)N1CC(F)(F)CO [Example 85, 3-((1R,3R)-1-(2-chloro-6-fluoro-3-(2-((3-fluoropropyl)amino)ethoxy)phenyl)-3-methyl-1,3,4,9-tetrahydro-2H-pyrido[3,4-b]indol-2-yl)-2,2-difluoropropan-1-ol] | 1.3 | 224 (≈ 118 µg/mL) | 3.1 | 0.089 | 4200 | 1.0 | – | – | – |
| COc1ccc(O[C@H](C)CNCCCF)cc1[C@@H]1c2[nH]c3ccccc3c2C[C@@H](C)N1CC(F)(F)CO [Example 47, 2,2-difluoro-3-((1R,3R)-1-(5-(((R)-1-((3-fluoropropyl)amino)propan-2-yl)oxy)-2-methoxyphenyl)-3-methyl-1,3,4,9-tetrahydro-2H-pyrido[3,4-b]indol-2-yl)propan-1-ol] | 2.5 | 488 (≈ 254 µg/mL) | 2.7 | 11 | 3200 | 6.1 | 81 | – | – |
| Cc1ccc(OCCNCCCF)nc1[C@@H]1c2[nH]c3ccccc3c2C[C@@H](C)N1CC(F)(F)F [Example 105, 3-fluoro-N-(2-((5-methyl-6-((1S,3R)-3-methyl-2-(2,2,2-trifluoroethyl)-2,3,4,9-tetrahydro-1H-pyrido[3,4-b]indol-1-yl)pyridin-2-yl)oxy)ethyl)propan-1-amine] | 42 | 136 (≈ 65.1 µg/mL) | 3.4 | 39 | 3500 | 1 | – | – | – |
| COc1cnc(NCCNCCCF)cc1[C@@H]1c2[nH]c3ccccc3c2C[C@@H](C)N1CC(F)(F)F [Example 42] | 3.7 | 349 (≈ 172 µg/mL) | 2.9 | 1.9 | 7100 | – | – | – | – |
| Cc1c(OCCN(C)CCCF)ncc(F)c1[C@@H]1c2[nH]c3ccccc3c2C[C@@H](C)N1C(C)CC(=O)O (single isomer, unassigned) [Example 159] | 0.9 | – | – | 0.18 | > 40000 | 13 | – | >1000 | 1.7 |
| COc1c(F)cc(OCCNCCCF)c(F)c1[C@@H]1c2[nH]c3ccccc3c2C[C@@H](C)N1CC(F)(F)F [Example 29, N-(2-(2,5-difluoro-4-methoxy-3-((1R,3R)-3-methyl-2-(2,2,2-trifluoroethyl)-2,3,4,9-tetrahydro-1H-pyrido[3,4-b]indol-1-yl)phenoxy)ethyl)-3-fluoropropan-1-amine] | 2 | 58 (≈ 30.7 µg/mL) | > 3.2 | 0.44 | 5100 | <3.2 | – | – | – |
| C[C@@H]1Cc2c([nH]c3ccccc23)[C@@H](c2nccc(OCCNCCCF)c2F)N1CC1(F)COC1 [Example 100, 3-fluoro-N-(2-((3-fluoro-2-((1S,3R)-2-((3-fluorooxetan-3-yl)methyl)-3-methyl-2,3,4,9-tetrahydro-1H-pyrido[3,4-b]indol-1-yl)pyridin-4-yl)oxy)ethyl)propan-1-amine] | 5.2 | > 1000 | 2.5 | 11 | 19000 | – | – | – | – |
| C[C@@H]1Cc2c([nH]c3ccccc23)[C@@H](c2nccc(OCCNCCCF)c2Cl)N1CC(F)(F)F [Example 93, N-(2-((3-chloro-2-((1S,3R)-3-methyl-2-(2,2,2-trifluoroethyl)-2,3,4,9-tetrahydro-1H-pyrido[3,4-b]indol-1-yl)pyridin-4-yl)oxy)ethyl)-3-fluoropropan-1-amine] | – | 0.5 (≈ 0.249 µg/mL) | 4.3 | – | 6600 | 0.34 | – | – | – |
| C[C@@H]1Cc2c([nH]c3ccccc23)[C@@H](c2nccc(OCCNCCCF)c2F)N1CC(F)F [Example 98, N-(2-((2-((1S,3R)-2-(2,2-difluoroethyl)-3-methyl-2,3,4,9-tetrahydro-1H-pyrido[3,4-b]indol-1-yl)-3-fluoropyridin-4-yl)oxy)ethyl)-3-fluoropropan-1-amine] | 1.9 | 594 (≈ 276 µg/mL) | 2.3 | 1.2 | > 32000 | – | – | – | – |
| C[C@@H]1Cc2c([nH]c3ccccc23)[C@@H](c2cc(OCCNCCCF)ncc2F)N1CC(F)(F)F [Example 39, 3-fluoroN-(2-((5-fluoro-4-((1R,3R)-3-methyl-2-(2,2,2-trifluoroethyl)-2,3,4,9-tetrahydro-1H-pyrido[3,4-b]indol-1-yl)pyridin-2-yl)oxy)ethyl)propan-1-amine] | 1.4 | 259 (≈ 125 µg/mL) | 3.6 | 0.26 | 3900 | – | – | – | – |
| C[C@@H]1Cc2c([nH]c3ccccc23)[C@@H](c2nccc(OCCNCCCF)c2F)N1CC1(F)CC1 [Example 99, 3-fluoro-N-(2-((3-fluoro-2-((1S,3R)-2-((1-fluorocyclopropyl)methyl)-3-methyl-2,3,4,9-tetrahydro-1H-pyrido[3,4-b]indol-1-yl)pyridin-4-yl)oxy)ethyl)propan-1-amine] | 3.4 | 285 (≈ 135 µg/mL) | 2.1 | 3.8 | 20000 | – | – | – | – |
| C[C@@H]1Cc2c([nH]c3ccccc23)[C@@H](c2ccnc(OCCNCCCF)c2Cl)N1CC(F)(F)CO [Example 104, 3-((1R,3R)-1-(3-chloro-2-(2-((3-fluoropropyl)amino)ethoxy)pyridin-4-yl)-3-methyl-1,3,4,9-tetrahydro-2H-pyrido[3,4-b]indol-2-yl)-2,2-difluoropropan-1-ol] | 0.72 | 431 (≈ 220 µg/mL) | 3 | 0.17 | – | 2.8 | – | – | – |
| COc1ccc(O[C@@H](C)CNCCCF)cc1[C@@H]1c2[nH]c3ccccc3c2C[C@@H](C)N1CC(F)(F)CO [Example 48, 2,2-difluoro-3-((1R,3R)-1-(5-(((S)-1-((3-fluoropropyl)amino)propan-2-yl)oxy)-2-methoxyphenyl)-3-methyl-1,3,4,9-tetrahydro-2H-pyrido[3,4-b]indol-2-yl)propan-1-ol] | 4.4 | 307 (≈ 160 µg/mL) | 2.8 | 13 | 2700 | – | – | – | – |
| COc1ccc(OCCNCCC(F)(F)F)cc1[C@@H]1c2[nH]c3ccccc3c2C[C@@H](C)N1CC(F)(F)F [Example 72, 3,3,3-trifluoro-N-(2-(4-methoxy-3-((1R,3R)-3-methyl-2-(2,2,2-trifluoroethyl)-2,3,4,9-tetrahydro-1H-pyrido[3,4-b]indol-1-yl)phenoxy)ethyl)propan-1-amine] | 1.4 | < 0.2 | 5.2 | 0.49 | – | <0.1 | – | – | – |
